Values quoted from earlier work as cited in US20140004186A1, “COMPOSITIONS COMPRISING A FATTY ACID OIL MIXTURE COMPRISING EPA AND DHA IN FREE ACID FORM, A SURFACTANT, AND A STATIN” (Pronova Biopharma Norge AS, priority 2010, published 2014).

What was measured:
[1] = Table 7, other surfactants

HBL Value [1] | oral bioavailability [%] | Compound
3.4 | – | CC(O)CO.CCCCCCCCCCCCCCCCCC(=O)O [Propylene glycol monostearate]
– | 18 | CC[C@H](C)C(=O)O[C@H]1C[C@H](O)C=C2C=C[C@H](C)[C@H](CC[C@@H](O)C[C@@H](O)CC(=O)O)[C@H]21 [pravastatin]
– | 20 | CC(C)c1nc(N(C)S(C)(=O)=O)nc(-c2ccc(F)cc2)c1/C=C/[C@@H](O)C[C@@H](O)CC(=O)O [rosuvastatin]
